According to patent US20050176826A1, “Use of asc-1 inhibitors to treat neurological and psychiatric disorders” (H. Lundbeck A/S, priority 2002, published 2005):

Experiments:
[1] = molecular target: T1, human asc-1 (Homo sapiens, UniProt Q9NS82); assay: [3H]D-serine uptake into HEK293 cells expressing human asc-1; type: cell-based; conditions: for inhibition of [3H]D-serine uptake (in words): HEK293 cells expressing the cloned asc-1
T1 construct: expressed in transfected cells; host or cells: HEK293 (ATCC CRL 1573), transient, vector pCI/neo
T1 sequence (Q9NS82 1-523): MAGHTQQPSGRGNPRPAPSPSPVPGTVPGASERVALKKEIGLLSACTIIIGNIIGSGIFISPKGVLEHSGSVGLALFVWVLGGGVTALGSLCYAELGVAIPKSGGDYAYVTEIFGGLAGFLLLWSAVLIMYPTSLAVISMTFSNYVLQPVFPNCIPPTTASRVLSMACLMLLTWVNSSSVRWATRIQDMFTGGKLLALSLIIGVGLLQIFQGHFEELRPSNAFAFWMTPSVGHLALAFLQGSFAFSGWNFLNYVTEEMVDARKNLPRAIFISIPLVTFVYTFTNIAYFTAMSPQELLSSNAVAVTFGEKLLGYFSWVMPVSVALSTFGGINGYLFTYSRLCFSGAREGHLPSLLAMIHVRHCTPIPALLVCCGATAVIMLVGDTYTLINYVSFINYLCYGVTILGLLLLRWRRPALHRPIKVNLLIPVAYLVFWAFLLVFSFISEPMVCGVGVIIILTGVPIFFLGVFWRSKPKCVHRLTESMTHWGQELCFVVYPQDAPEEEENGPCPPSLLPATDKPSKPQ
Procedure: Uptake was determined 2-4 days after the transfection.
(§1) Into cortical membranes: Cortex from male Wistar rats (150-200 g) was homogenized in 0.40 M sucrose and centrifuged at 1000×g for 10 min. […] Test compounds and tissue (1 mg orig. tissue/well) were added to 96 well plates and incubated with [^3H]-D-serine (specific activity=26.8 Ci/mmol, PerkinElmer, Cambridge, U.K.) (100 nM final concentration) for 5 min at 25° C. Samples were filtered on Unifilter GF/B glass fiber (Packard Biosciences, Meriden, Conn., USA) and washed with 3×0.25 mL assay buffer. Measurements of [^3H]-D-serine uptake into whole HEK293 cells expressing human asc-1 were performed in 96 well plates with similar conditions except that the cells were incubated for 15 min with radioligand and washed by dipping twice in cold assay buffer following incubation with radioligand. Accumulated radioactivity was extracted from the cells by adding 200 μL scintillation fluid/well (Ultima Gold, Packard Biosciences) and the plates were counted in a Microplates Scintillation Counter (Packard Biosciences). The D-serine uptake in samples containing test compounds was compared to controls without added compound or controls where transport via the asc-1 was inhibited by addition of e.g. 30 mM L-alanine.

[2] = molecular target: T2, D-serine-sensitive Na+-independent transporter in rat cortical membranes (Rattus norvegicus, UniProt P63116); assay: Na+-independent [3H]D-serine uptake into rat cortical membranes (synaptosomes); type: biochemical; conditions: for inhibition of [3H]D-serine uptake (in words): rat cortical synaptosomes
T2 construct: from tissue; host or cells: rat cerebral cortex membranes (P2 synaptosomes), male Wistar rats
T2 sequence (P63116 1-530): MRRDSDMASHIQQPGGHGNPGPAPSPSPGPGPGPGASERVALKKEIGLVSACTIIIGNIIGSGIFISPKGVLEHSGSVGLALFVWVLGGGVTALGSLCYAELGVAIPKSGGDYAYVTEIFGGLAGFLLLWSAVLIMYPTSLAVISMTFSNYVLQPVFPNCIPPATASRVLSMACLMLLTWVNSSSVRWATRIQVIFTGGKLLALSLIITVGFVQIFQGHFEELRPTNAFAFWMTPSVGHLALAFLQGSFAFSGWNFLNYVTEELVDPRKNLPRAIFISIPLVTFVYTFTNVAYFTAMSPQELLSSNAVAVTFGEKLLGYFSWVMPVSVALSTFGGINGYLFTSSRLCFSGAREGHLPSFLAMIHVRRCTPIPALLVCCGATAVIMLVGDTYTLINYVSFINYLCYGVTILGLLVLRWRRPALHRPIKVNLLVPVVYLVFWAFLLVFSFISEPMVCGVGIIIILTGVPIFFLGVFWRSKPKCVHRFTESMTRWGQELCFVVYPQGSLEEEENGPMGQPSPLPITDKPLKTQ
T2 sequence (Q794F9 1-527 partner): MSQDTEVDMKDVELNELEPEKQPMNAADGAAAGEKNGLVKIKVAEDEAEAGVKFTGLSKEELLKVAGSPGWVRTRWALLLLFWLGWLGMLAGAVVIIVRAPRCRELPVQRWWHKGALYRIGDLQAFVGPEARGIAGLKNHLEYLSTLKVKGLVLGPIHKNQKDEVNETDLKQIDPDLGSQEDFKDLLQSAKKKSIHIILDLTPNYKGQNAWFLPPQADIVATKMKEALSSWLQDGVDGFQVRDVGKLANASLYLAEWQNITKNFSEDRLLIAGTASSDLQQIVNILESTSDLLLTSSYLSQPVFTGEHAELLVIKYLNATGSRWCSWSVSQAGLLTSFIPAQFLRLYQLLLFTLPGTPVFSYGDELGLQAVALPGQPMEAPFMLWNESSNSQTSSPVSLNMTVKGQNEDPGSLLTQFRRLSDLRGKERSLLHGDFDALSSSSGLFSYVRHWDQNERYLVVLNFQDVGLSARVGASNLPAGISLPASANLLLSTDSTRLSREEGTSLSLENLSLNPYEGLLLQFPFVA
Procedure: as §1

[3] = molecular target: NMDA receptor (Homo sapiens, UniProt Q05586); conditions: versus glycine; cited from earlier work

NC(=O)CC[C@H](N)C(=O)O [L-glutamine]
inhibition of [3H]D-serine uptake (in words) [1]: Inactive | inhibition of [3H]D-serine uptake (in words) [2]: Inactive

N[C@@H](CCC(=O)O)C(=O)O [L-glutamate]
inhibition of [3H]D-serine uptake (in words) [1]: Inactive | inhibition of [3H]D-serine uptake (in words) [2]: Inactive

N[C@@H](CO)C(=O)O [L-serine]
inhibition of [3H]D-serine uptake (in words) [1]: effective inhibition | inhibition of [3H]D-serine uptake (in words) [2]: effective inhibition

NC(=O)C[C@H](N)C(=O)O [L-asparagine]
inhibition of [3H]D-serine uptake (in words) [1]: Less effective, but significant inhibition | inhibition of [3H]D-serine uptake (in words) [2]: Less effective, but significant inhibition

N[C@H](CO)C(=O)O [D-serine]
co-agonist potency relative to glycine at the allosteric site on the NMDA receptor [3]: 3-4 fold

C[C@H](N)C(=O)O [L-alanine]
block of uptake via the asc system, including asc-1 ([1]; 30 mM): completely block | inhibition of [3H]D-serine uptake (in words) [1]: effective inhibition | block of [3H]D-serine uptake into rat cortical membranes ([2]; rat cortical membranes): completely blocks | inhibition of [3H]D-serine uptake (in words) [2]: effective inhibition

N[C@@H](CSSC[C@H](N)C(=O)O)C(=O)O [L-cystine]
inhibition of [3H]D-serine uptake (in words) [1]: Inactive | inhibition of [3H]D-serine uptake (in words) [2]: Inactive

N[C@@H](CC(=O)O)C(=O)O [L-aspartate]
inhibition of [3H]D-serine uptake (in words) [1]: Inactive | inhibition of [3H]D-serine uptake (in words) [2]: Inactive

CC(C)C[C@H](N)C(=O)O [L-leucine]
inhibition of [3H]D-serine uptake (in words) [1]: Less effective, but significant inhibition | inhibition of [3H]D-serine uptake (in words) [2]: Less effective, but significant inhibition

N[C@@H](Cc1ccc(O)cc1)C(=O)O [L-tyrosine]
inhibition of [3H]D-serine uptake (in words) [1]: Less effective, but significant inhibition | inhibition of [3H]D-serine uptake (in words) [2]: Less effective, but significant inhibition

O=C(O)[C@@H]1CCCN1 [L-proline]
inhibition of [3H]D-serine uptake (in words) [1]: Inactive | inhibition of [3H]D-serine uptake (in words) [2]: Inactive

CSCC[C@H](N)C(=O)O [L-methionine]
inhibition of [3H]D-serine uptake (in words) [1]: Less effective, but significant inhibition | inhibition of [3H]D-serine uptake (in words) [2]: Less effective, but significant inhibition

N[C@@H](Cc1c[nH]cn1)C(=O)O [L-histidine]
inhibition of [3H]D-serine uptake (in words) [1]: Less effective, but significant inhibition | inhibition of [3H]D-serine uptake (in words) [2]: Less effective, but significant inhibition

NCC(=O)O [L-glycine]
inhibition of [3H]D-serine uptake (in words) [1]: effective inhibition | inhibition of [3H]D-serine uptake (in words) [2]: effective inhibition

CC(C)[C@H](N)C(=O)O [L-valine]
inhibition of [3H]D-serine uptake (in words) [1]: Less effective, but significant inhibition | inhibition of [3H]D-serine uptake (in words) [2]: Less effective, but significant inhibition

N=C(N)NCCC[C@H](N)C(=O)O [L-arginine]
inhibition of [3H]D-serine uptake (in words) [1]: Inactive | inhibition of [3H]D-serine uptake (in words) [2]: Inactive

C[C@@H](O)[C@H](N)C(=O)O [L-threonine]
inhibition of [3H]D-serine uptake (in words) [1]: effective inhibition | inhibition of [3H]D-serine uptake (in words) [2]: effective inhibition

CC[C@H](C)[C@H](N)C(=O)O [L-isoleucine]
inhibition of [3H]D-serine uptake (in words) [1]: Less effective, but significant inhibition | inhibition of [3H]D-serine uptake (in words) [2]: Less effective, but significant inhibition

NCCCC[C@H](N)C(=O)O [L-lysine]
inhibition of [3H]D-serine uptake (in words) [1]: Inactive | inhibition of [3H]D-serine uptake (in words) [2]: Inactive

N[C@@H](Cc1ccccc1)C(=O)O [L-phenylalanine]
inhibition of [3H]D-serine uptake (in words) [1]: Less effective, but significant inhibition | inhibition of [3H]D-serine uptake (in words) [2]: Less effective, but significant inhibition

N[C@@H](CS)C(=O)O [L-cysteine]
inhibition of [3H]D-serine uptake (in words) [1]: effective inhibition | inhibition of [3H]D-serine uptake (in words) [2]: effective inhibition
